The values that follow come from patent US7919508B2, “3-piperidinylisochroman-5-ols as dopamine agonists” (Aventis Pharmaceuticals Inc., priority 2004, dated 2011).

pEC50, pKi: −log10 of the molar value. Counter-ions that a name gives are not always drawn. Like-named read-outs stand apart in the source and are kept apart here. Bounds are passed on as bounds.

In one assay the target is T1, D1 receptor (Homo sapiens, UniProt P21728).
T1 construct: expressed in transfected cells; host or cells: D1 transfected CHO cell line
T1 sequence (P21728 whole entry): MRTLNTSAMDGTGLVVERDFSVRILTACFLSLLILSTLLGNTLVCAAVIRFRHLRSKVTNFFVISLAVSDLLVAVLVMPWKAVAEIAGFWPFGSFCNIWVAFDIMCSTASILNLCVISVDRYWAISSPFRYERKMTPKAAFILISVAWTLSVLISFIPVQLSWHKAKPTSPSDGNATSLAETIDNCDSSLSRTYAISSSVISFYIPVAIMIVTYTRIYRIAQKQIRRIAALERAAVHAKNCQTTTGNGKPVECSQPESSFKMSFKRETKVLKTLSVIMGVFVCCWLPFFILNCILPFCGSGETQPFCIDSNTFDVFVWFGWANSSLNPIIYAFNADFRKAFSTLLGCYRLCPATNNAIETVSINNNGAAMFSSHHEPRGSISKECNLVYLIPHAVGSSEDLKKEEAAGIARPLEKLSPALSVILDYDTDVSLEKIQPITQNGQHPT
The assay can be described thus: D1 Activation Adenylyl Cyclase Assay (cAMP FlashPlate, D1 transfected CHO cell line). The assay is classed as cell-based. In short, it runs like this:
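D1-transfected CHO cells (50,000/well) were exposed to compound 1/10 serial dilutions for 8 min at RT; cAMP measured by competitive 125I-cAMP FlashPlate against a standard curve. Response normalised between basal and saturating D1 agonist; EC50 at half-maximal stimulation, plateau reported as % maximal dopamine stimulation.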

For assay [1], the target named is human dopamine D2Long (D2L) receptors (Homo sapiens, UniProt P14416).
Sequence of human dopamine D2Long (D2L) receptors (P14416 whole entry): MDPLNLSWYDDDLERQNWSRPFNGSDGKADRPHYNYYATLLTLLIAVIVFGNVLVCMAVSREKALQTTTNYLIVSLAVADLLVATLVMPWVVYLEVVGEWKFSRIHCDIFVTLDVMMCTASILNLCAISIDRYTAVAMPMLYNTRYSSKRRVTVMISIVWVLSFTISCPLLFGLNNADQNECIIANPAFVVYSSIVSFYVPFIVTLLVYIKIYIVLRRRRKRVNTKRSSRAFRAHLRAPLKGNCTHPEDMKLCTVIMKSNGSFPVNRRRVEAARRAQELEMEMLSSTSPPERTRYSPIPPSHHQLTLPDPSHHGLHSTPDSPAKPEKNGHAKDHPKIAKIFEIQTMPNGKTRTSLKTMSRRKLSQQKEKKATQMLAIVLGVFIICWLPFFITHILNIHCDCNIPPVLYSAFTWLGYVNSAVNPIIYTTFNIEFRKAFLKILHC
The target in assay [2] is T2, human dopamine D1 receptor (Homo sapiens, UniProt P21728).
T2 construct: A 1.4 Kb Hind III to Xho I fragment was subcloned into the vector pMMLV; expressed in transfected cells; host or cells: CHO cells, clone CHO-D1M#9 (plasmid pHD1MMLV), membranes
T2 sequence (P21728 whole entry, the tested form may be a part): as the sequence (P21728 whole entry) above
The assay can be described thus: [3H]-SCH-23390 binding to cloned human dopamine D1 receptors (CHO cell membranes).

Setting [3] is: agonist activity at the D1 receptor, adenylate cyclase assay, D1 transfected CHO cell line, read-out: D1 EC50.
The mark [4] stands for this setting: competitive binding, [3H]-SCH-23390, cloned human D1 in CHO membranes, read-out: D1 affinity Ki.

For orientation: pEC50 means −log10 of the EC50, conventionally taken in molar units. The term pKi denotes −log10 of the Ki, conventionally taken in molar units.

On to `Cc1ccc2c(c1O)C[C@@H](C1CCN(CCC(C)c3noc4cc(F)ccc34)CC1)O[C@H]2CN` (stereo partly drawn) [Example 104, (1R,3S)-1-Aminomethyl-3-{1-[3-(6-fluoro-benzo[d]isoxazol-3-yl)butyl]piperidin-4-yl}-6-methylisochroman-5-ol dihydrochloride], for which the pEC50 at D1 receptor (setting [3]) was 6.94. Also, the results for the pKi in assay [1] and in assay [2] (setting [4]) were 6.91 and 7.15, respectively.

As to `Cc1ccc2c(c1O)C[C@@H](C1CCN(CCc3ccccc3)CC1)O[C@H]2CN` [Example 106, (1R,3S)-1-Aminomethyl-6-methyl-3-(1-phenethyl-piperidin-4-yl)-isochroman-5-ol dihydrobromide], the pEC50 on D1 receptor (setting [3]) was 7.54. Further, the pKi was 6.56 in assay [1] and 7.35 in assay [2] (setting [4]).

As to `Cc1ccc2c(c1O)C[C@@H](C1CCN(CCc3cccc(Cl)c3)CC1)O[C@H]2CN` [Example 107, (1R,3S)-1-Aminomethyl-3-{1-[2-(3-chloro-phenyl)-ethyl]-piperidin-4-yl}-6-methyl-isochroman-5-ol dihydrobromide], at D1 receptor (setting [3]), the pEC50 was 6.85. Moreover, the pKi was no more than 5.00 in assay [1] and 6.03 in assay [2] (setting [4]).

Regarding `Cc1ccc2c(c1O)C[C@@H](C1CCN(C/C=C/c3ccccc3)CC1)O[C@H]2CN` [Example 109, (1R,3S)-1-Aminomethyl-6-methyl-3-[1-(3-phenyl-allyl)-piperidin-4-yl]-isochroman-5-ol dihydrobromide], the pEC50 at D1 receptor (setting [3]) was 6.99. The negative logarithm of the Ki (pKi) in assay [1] was 6.67; in assay [2] (setting [4]), 6.97.

On to `Cc1ccc2c(c1O)C[C@@H](C1CCN(C(=O)OC(C)C)CC1)O[C@H]2CN` [Example 111, 4-((1R,3S)-1-Aminomethyl-5-hydroxy-6-methyl-isochroman-3-yl)-piperidine-1-carboxylic acid isopropyl ester hydrochloride], for which the pEC50 on D1 receptor (setting [3]) was 7.31. Moreover, the pKi in assay [1] is 6.10; in assay [2] (setting [4]), 6.78.

`COC(=O)N1CCC([C@@H]2Cc3c(ccc(C)c3O)[C@H](CN)O2)CC1` [Example 112, 4-((1R,3S)-1-Aminomethyl-5-hydroxy-6-methyl-isochroman-3-yl)-piperidine-1-carboxylic acid methyl ester hydrochloride]: at D1 receptor (setting [3]), the pEC50 is 9.22. Further, the pKi in assay [1] was no more than 4.00; in assay [2] (setting [4]) it was 7.00.

Consider `Cc1ccc2c(c1O)C[C@@H](C1CCN(C(=O)Oc3ccccc3)CC1)O[C@H]2CN` [Example 113, 4-((1R,3S)-1-Aminomethyl-5-hydroxy-6-methyl-isochroman-3-yl)-piperidine-1-carboxylic acid phenyl ester hydrochloride], for which, on D1 receptor, the pEC50 is 8.38. Moreover, the pKi was no more than 4.00 in assay [1] and 7.52 in assay [2].

The compound `Cc1ccc(OC(=O)N2CCC([C@@H]3Cc4c(ccc(C)c4O)[C@H](CN)O3)CC2)cc1` [Example 114, 4-((1R,3S)-1-Aminomethyl-5-hydroxy-6-methyl-isochroman-3-yl)-piperidine-1-carboxylic acid p-tolyl ester hydrochloride] gave a pEC50 at D1 receptor of 9.07. Besides, the figures for the pKi in assay [1] and in assay [2] were 6.29 and 7.19, respectively.

`Cc1ccc2c(c1O)C[C@@H](C1CCN(C(=O)Oc3ccc(Cl)cc3)CC1)O[C@H]2CN` [Example 115, 4-((1R,3S)-1-Aminomethyl-5-hydroxy-6-methyl-isochroman-3-yl)-piperidine-1-carboxylic acid 4-chloro-phenyl ester hydrochloride] had a pEC50 on D1 receptor of 7.32. Further, the pKi in assay [1] was 6.30; in assay [2], 7.41.

The compound `Cc1ccc2c(c1O)C[C@@H](C1CCN(C(=O)Oc3ccccc3Cl)CC1)O[C@H]2CN` [Example 116, 4-((1R,3S)-1-Aminomethyl-5-hydroxy-6-methyl-isochroman-3-yl)-piperidine-1-carboxylic acid 2-chloro-phenyl ester hydrochloride] had a pEC50 on D1 receptor of 8.34. The results for the pKi in assay [1] and in assay [2] were no more than 4.00 and 7.49, respectively.

`Cc1ccc2c(c1O)C[C@@H](C1CCN(C(=O)Oc3ccc(Br)cc3)CC1)O[C@H]2CN` [Example 117, 4-((1R,3S)-1-Aminomethyl-5-hydroxy-6-methyl-isochroman-3-yl)-piperidine-1-carboxylic acid 4-bromo-phenyl ester hydrochloride] had a pEC50 at D1 receptor of 8.37. The pKi in assay [1] was 6.39; in assay [2], 7.23.

For `Cc1ccc2c(c1O)C[C@@H](C1CCN(C(=O)Oc3ccc(F)cc3)CC1)O[C@H]2CN` [Example 118, 4-((1R,3S)-1-Aminomethyl-5-hydroxy-6-methyl-isochroman-3-yl)-piperidine-1-carboxylic acid 4-fluoro-phenyl ester hydrochloride], on D1 receptor, the pEC50 was 8.07. The pKi was no more than 5.00 in assay [1] and 7.40 in assay [2].

Turning to `Cc1ccc2c(c1O)C[C@@H](C1CCN(C(=O)Oc3ccccc3C(F)(F)F)CC1)O[C@H]2CN` [Example 119, 4-((1R,3S)-1-Aminomethyl-5-hydroxy-6-methyl-isochroman-3-yl)-piperidine-1-carboxylic acid 2-trifluoromethyl-phenyl ester hydrochloride], the pEC50 on D1 receptor was 8.51. Further, the pKi is 6.19 in assay [1] and 7.27 in assay [2].

`COc1ccc(OC(=O)N2CCC([C@@H]3Cc4c(ccc(C)c4O)[C@H](CN)O3)CC2)cc1` [Example 120, 4-((1R,3S)-1-Aminomethyl-5-hydroxy-6-methyl-isochroman-3-yl)-piperidine-1-carboxylic acid 4-methoxy-phenyl ester hydrochloride] showed a pEC50 on D1 receptor of 7.44. Besides, the pKi in assay [1] was 6.12; in assay [2], 7.35.

As for `Cc1ccc2c(c1O)C[C@@H](C1CCN(C(=O)Oc3ccccc3O)CC1)O[C@H]2CN` [Example 121, 4-((1R,3S)-1-Aminomethyl-5-hydroxy-6-methyl-isochroman-3-yl)-piperidine-1-carboxylic acid 2-hydroxy-phenyl ester hydrochloride], the pEC50 on D1 receptor was 8.60. In addition, the results for the pKi in assay [1] and in assay [2] were 6.21 and 7.51, respectively.

For `Cc1ccc2c(c1O)C[C@@H](C1CCN(C(=O)Oc3ccc4ccccc4c3)CC1)O[C@H]2CN` [Example 123, 4-((1R,3S)-1-Aminomethyl-5-hydroxy-6-methyl-isochroman-3-yl)-piperidine-1-carboxylic acid naphthalen-2-yl ester hydrochloride], the pEC50 on D1 receptor was 8.00. For the same compound, the pKi was 6.81 in assay [1] and 7.43 in assay [2].

`Cc1ccc2c(c1O)C[C@@H](C1CCN(C(=O)Nc3cc(C(F)(F)F)ccc3F)CC1)O[C@H]2CN` [Example 124, 4-((1R,3S)-1-Aminomethyl-5-hydroxy-6-methyl-isochroman-3-yl)-piperidine-1-carboxylic acid (2-fluoro-5-trifluoromethyl-phenyl)-amide hydrobromide]: at D1 receptor (setting [3]), the pEC50 was 7.70. For the same compound, the pKi is no more than 5.00 in assay [1] and 6.31 in assay [2] (setting [4]).

In the case of `COc1cccc(NC(=O)N2CCC([C@@H]3Cc4c(ccc(C)c4O)[C@H](CN)O3)CC2)c1` [Example 125, 4-((1R,3S)-1-Aminomethyl-5-hydroxy-6-methyl-isochroman-3-yl)-piperidine-1-carboxylic acid (3-methoxy-phenyl)-amide], the pEC50 at D1 receptor (setting [3]) is 7.22. The pKi in assay [1] was no more than 5.00; in assay [2] (setting [4]) it was 7.10.
